Earlier results in US20180015057A1, “ERR ALPHA AND ERR GAMMA ARE ESSENTIAL COORDINATORS OF CARDIAC METABOLISM AND FUNCTION” (Salk Institute for Biological Studies, priority 2015, published 2018).

Tests used:
[1] = biological target: T1, ERRβ (Homo sapiens, UniProt O95718); settings: for activation of ERRβ: for example in the presence of PGC-1a
T1 sequence (O95718 1-433): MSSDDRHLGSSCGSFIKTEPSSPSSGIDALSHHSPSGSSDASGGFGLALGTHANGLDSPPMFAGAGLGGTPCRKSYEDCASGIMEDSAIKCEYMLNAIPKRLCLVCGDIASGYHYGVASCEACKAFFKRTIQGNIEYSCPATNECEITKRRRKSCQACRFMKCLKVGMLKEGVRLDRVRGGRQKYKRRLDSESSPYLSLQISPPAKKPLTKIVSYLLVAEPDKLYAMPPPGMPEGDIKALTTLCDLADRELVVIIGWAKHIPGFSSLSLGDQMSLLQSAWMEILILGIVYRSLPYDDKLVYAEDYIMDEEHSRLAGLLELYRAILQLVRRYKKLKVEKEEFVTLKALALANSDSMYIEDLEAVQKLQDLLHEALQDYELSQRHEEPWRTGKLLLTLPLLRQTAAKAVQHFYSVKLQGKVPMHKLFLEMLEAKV

[2] = biological target: T2, ERRγ (Homo sapiens, UniProt P62508); settings: for activation of ERRγ: for example in the presence of PGC-1a
T2 sequence (P62508 1-458): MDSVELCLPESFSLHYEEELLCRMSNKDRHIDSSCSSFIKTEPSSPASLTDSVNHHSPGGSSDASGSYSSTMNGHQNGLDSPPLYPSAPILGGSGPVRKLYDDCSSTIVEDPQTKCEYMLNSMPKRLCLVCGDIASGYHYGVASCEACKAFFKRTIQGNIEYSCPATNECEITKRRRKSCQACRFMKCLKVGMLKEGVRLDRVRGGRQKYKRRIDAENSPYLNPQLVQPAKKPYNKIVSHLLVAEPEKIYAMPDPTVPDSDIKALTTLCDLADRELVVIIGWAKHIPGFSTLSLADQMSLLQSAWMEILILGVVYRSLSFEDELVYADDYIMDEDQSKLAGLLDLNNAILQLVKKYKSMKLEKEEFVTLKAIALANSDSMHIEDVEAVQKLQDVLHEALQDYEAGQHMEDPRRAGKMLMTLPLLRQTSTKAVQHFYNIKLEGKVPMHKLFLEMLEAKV

[3] = biological target: T3, ERRα (Homo sapiens, UniProt P11474); settings: for example in the presence of PGC-1a
T3 sequence (P11474 1-423): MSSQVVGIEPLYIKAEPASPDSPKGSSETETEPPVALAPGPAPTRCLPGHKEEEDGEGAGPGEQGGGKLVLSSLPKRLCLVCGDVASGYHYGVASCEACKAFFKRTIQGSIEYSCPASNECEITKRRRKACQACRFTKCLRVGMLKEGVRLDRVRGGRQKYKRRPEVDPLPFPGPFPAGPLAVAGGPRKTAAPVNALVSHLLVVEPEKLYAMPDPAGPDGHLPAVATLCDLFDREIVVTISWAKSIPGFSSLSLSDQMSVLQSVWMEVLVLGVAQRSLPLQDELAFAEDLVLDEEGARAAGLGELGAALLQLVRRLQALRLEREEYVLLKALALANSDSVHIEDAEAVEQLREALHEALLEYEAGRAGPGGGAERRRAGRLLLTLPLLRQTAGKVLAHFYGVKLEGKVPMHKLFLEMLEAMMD

| activation of ERRβ [1] | activation of ERRα [3] | activation of ERRγ [2] | selectivity for ERRγ versus ERRα and β ([2]; screening assay for agonists derived from GSK4716 (Kim et al. 2009)) | SMILES | agonism of ERRβ [1] | agonism of ERRγ [2] |
| --- | --- | --- | --- | --- | --- | --- |
|  |  |  |  | CCN(CC)c1ccc(C=NNC(=O)c2ccc(O)cc2)cc1 (stereo in doubt) [GSK9089, N-[(E)-[4-(diethylamino)phenyl]methylideneamino]-4-hydroxybenzamide] | agonists | agonists |
| activate | activate | activate |  | Cc1cccc(C=NNC(=O)c2ccc(O)cc2)c1 [DY159] |  |  |
| activate | activate | activate |  | O=C(NN=Cc1ccccc1)c1ccc(O)cc1 [DY162] |  |  |
| activate | activate | activate |  | Cc1ccc(/C=N/NC(=O)c2ccc(O)cc2)cc1 [DY163] |  |  |
| activate | activate | activate |  | CCc1ccc(C=NNC(=O)c2ccc(O)cc2)s1 [DY164] |  |  |
|  |  |  | selective for ERRγ but not ERRα and β | Nc1ccc(C(=O)N/N=C/c2ccc(/N=N/c3ccccc3)cc2)cn1 [E6] |  |  |
|  |  |  |  | CC(C)c1ccc(/C=N/NC(=O)c2ccc(O)cc2)cc1 [GSK4716] | agonists |  |
